Among the data in US9603889B2, “IAP antagonists” (BRISTOL-MYERS SQUIBB COMPANY, priority 2012, dated 2017) are IC50 values, retold here.

XIAP BIR3 (N-His-Tb-BIR3(241-356, XIAP)), sequence (P98170 241-356): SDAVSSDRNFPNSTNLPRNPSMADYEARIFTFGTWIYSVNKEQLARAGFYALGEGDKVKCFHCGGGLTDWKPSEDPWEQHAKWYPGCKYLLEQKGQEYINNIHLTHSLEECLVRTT

The test has as its target XIAP BIR3 (N-His-Tb-BIR3(241-356, XIAP)) (Homo sapiens (Human), UniProt P98170). Format: binding. The settings on record: 130 nM N-His-Tb-BIR3(241-356, XIAP), 1.4 nM fluoresceinated modified SMAC peptide, 60 minutes room temperature; read-out: XIAP BIR3 FPA IC50.
With `CC[C@H](c1ccccc1)N(Cc1ccc(C(=O)N[C@H]2C[C@@H](C(=O)N[C@@H]3CCCc4ccccc43)N(C(=O)[C@@H](NC(=O)[C@H](C)NC)C(C)(C)C)C2)cc1)C(=O)[C@@H]1Cc2ccccc2CN1C(=O)[C@@H](NC(=O)[C@H](C)NC)C(C)(C)C` [Example 20, (S)-2-((S)-3,3-Dimethyl-2-((S)-2-(methylamino)propanamido)butanoyl)-N-(4-(((3S,5S)-1-((S)-3,3-dimethyl-2-((S)-2-(methylamino)propanamido)butanoyl)-5-(((R)-1,2,3,4-tetrahydro-naphthalen-1-yl)carbamoyl)pyrrolidin-3-yl)carbamoyl)benzyl)-N-((R)-1-phenylpropyl)-1,2,3,4-tetra-hydroisoquinoline-3-carboxamide], the half-maximal inhibitory concentration (IC50) is 110 nM.
In the case of `CN[C@@H](C)C(=O)N[C@H](C(=O)N1C[C@@H](NC(=O)c2ccc(CN(C(=O)[C@@H]3Cc4ccccc4CN3C(=O)[C@@H](NC(=O)[C@H](C)NC)C(C)(C)C)[C@H](C)C(c3ccccc3)c3ccccc3)cc2)C[C@H]1C(=O)N[C@@H]1CCCc2ccccc21)C(C)(C)C` [Example 21, (S)-2-((S)-3,3-Dimethyl-2-((S)-2-(methylamino)propanamido)butanoyl)-N-(4-(((3S,5S)-1-((S)-3,3-dimethyl-2-((S)-2-(methylamino)propanamido)butanoyl)-5-(((R)-1,2,3,4-tetra-hydronaphthalen-1-yl)carbamoyl)pyrrolidin-3-yl)carbamoyl)benzyl)-N-((R)-1,1-diphenylpropan-2-yl)-1,2,3,4-tetrahydro-isoquinoline-3-carboxamide] it was 290 nM; in that of `CN[C@@H](C)C(=O)N[C@H](C(=O)N1C[C@@H](NC(=O)c2ccc(CN(C(=O)[C@@H]3Cc4ccccc4CN3C(=O)[C@@H](NC(=O)[C@H](C)NC)C(C)(C)C)[C@H](C)c3ccccc3)cc2)C[C@H]1C(=O)N[C@@H]1CCCc2ccccc21)C(C)(C)C` [Example 23, (S)-2-((S)-3,3-Dimethyl-2-((S)-2-(methylamino)propanamido)butanoyl)-N-(4-(((3S,5S)-1-((S)-3,3-dimethyl-2-((S)-2-(methylamino)propanamido)butanoyl)-5-(((R)-1,2,3,4-tetra-hydronaphthalen-1-yl)carbamoyl)pyrrolidin-3-yl)carbamoyl)benzyl)-N-((R)-1-phenylethyl)-1,2,3,4-tetra-hydroisoquinoline-3-carboxamide], 120 nM; in that of `CN[C@@H](C)C(=O)N[C@H](C(=O)N1C[C@@H](NC(=O)c2ccc(CN(C(=O)[C@@H]3Cc4ccccc4CN3C(=O)[C@@H](NC(=O)[C@H](C)NC)C(C)(C)C)[C@H](C)c3ccccc3OC)cc2)C[C@H]1C(=O)N[C@@H]1CCCc2ccccc21)C(C)(C)C` [Example 24, (S)-2-((S)-3,3-Dimethyl-2-((S)-2-(methylamino)propanamido)butanoyl)-N-(4-(((3S,5S)-1-((S)-3,3-dimethyl-2-((S)-2-(methylamino)propanamido)butanoyl)-5-(((R)-1,2,3,4-tetrahydro-naphthalen-1-yl)carbamoyl)pyrrolidin-3-yl)carbamoyl)benzyl)-N-((R)-1-(2-methoxyphenyl)ethyl)-1,2,3,4-tetrahydro-isoquinoline-3-carboxamide], 130 nM.
Turning to `CN[C@@H](C)C(=O)N[C@H](C(=O)N1C[C@@H](NC(=O)c2ccc(CN(C(=O)[C@@H]3Cc4ccccc4CN3C(=O)[C@@H](NC(=O)[C@H](C)NC)C(C)(C)C)[C@H](C)Cc3ccccc3F)cc2)C[C@H]1C(=O)N[C@@H]1CCCc2ccccc21)C(C)(C)C` [Example 25, (S)-2-((S)-3,3-Dimethyl-2-((S)-2-(methylamino)propanamido)butanoyl)-N-(4-(((3S,5S)-1-((S)-3,3-dimethyl-2-((S)-2-(methylamino)propanamido)butanoyl)-5-(((R)-1,2,3,4-tetrahydro-naphthalen-1-yl)carbamoyl)pyrrolidin-3-yl)carbamoyl)benzyl)-N-((R)-1-(2-fluorophenyl)propan-2-yl)-1,2,3,4-tetrahydro-isoquinoline-3-carboxamide], the IC50 was 60 nM.
In the case of `CN[C@@H](C)C(=O)N[C@H](C(=O)N1CC(NC(=O)c2ccc(CN(C(=O)[C@@H]3Cc4ccccc4CN3C(=O)[C@@H](NC(=O)[C@H](C)NC)C(C)(C)C)C(C)c3ccccc3Cl)cc2)C[C@H]1C(=O)NC1CCCc2ccccc21)C(C)(C)C` (stereo partly drawn) [Example 26, (3S)-N-(1-(2-Chlorophenyl)ethyl)-2-((S)-3,3-dimethyl-2-((S)-2-(methylamino)propanamido)butanoyl)-N-(4-(((3S,5S)-1-((S)-3,3-dimethyl-2-((S)-2-(methylamino)propanamido)butanoyl)-5-(((R)-1,2,3,4-tetrahydro-naphthalen-1-yl)carbamoyl)pyrrolidin-3-yl)carbamoyl)benzyl)-1,2,3,4-tetra-hydroisoquinoline-3-carboxamide] it was 190 nM; in that of `CN[C@@H](C)C(=O)N[C@H](C(=O)N1CCc2ccccc2[C@H]1C(=O)N(Cc1ccc(C(=O)N[C@H]2C[C@@H](C(=O)N[C@@H]3CCCc4ccccc43)N(C(=O)[C@@H](NC(=O)[C@H](C)NC)C(C)(C)C)C2)cc1)[C@H](C)Cc1ccccc1F)C(C)(C)C` [Example 27, (S)-2-((S)-3,3-Dimethyl-2-((S)-2-(methylamino)propanamido)butanoyl)-N-(4-(((3S,5S)-1-((S)-3,3-dimethyl-2-((S)-2-(methylamino)propanamido)butanoyl)-5-(((R)-1,2,3,4-tetrahydro-naphthalen-1-yl)carbamoyl)pyrrolidin-3-yl)carbamoyl)benzyl)-N-((R)-1-(2-fluorophenyl)propan-2-yl)-1,2,3,4-tetrahydro-isoquinoline-1-carboxamide], 90 nM; in that of `CN[C@@H](C)C(=O)N[C@H](C(=O)N1C[C@@H](NC(=O)c2ccc(CN(C(=O)[C@@H]3Cc4ccccc4CN3C(=O)[C@@H](NC(=O)[C@H](C)NC)C(C)(C)C)[C@H](C)c3ccccc3C)cc2)C[C@H]1C(=O)N[C@@H]1CCCc2ccccc21)C(C)(C)C` [Example 28, (S)-2-((S)-3,3-Dimethyl-2-((S)-2-(methylamino)propanamido)butanoyl)-N-(4-(((3S,5S)-1-((S)-3,3-dimethyl-2-((S)-2-(methylamino)propanamido)butanoyl)-5-(((R)-1,2,3,4-tetra-hydronaphthalen-1-yl)carbamoyl)pyrrolidin-3-yl)carbamoyl)benzyl)-N-((R)-1-(o-tolyl)ethyl)-1,2,3,4-tetrahydro-isoquinoline-3-carboxamide], 160 nM.
Regarding `CCOc1ccccc1[C@@H](C)N(Cc1ccc(C(=O)N[C@H]2C[C@@H](C(=O)N[C@@H]3CCCc4ccccc43)N(C(=O)[C@@H](NC(=O)[C@H](C)NC)C(C)(C)C)C2)cc1)C(=O)[C@@H]1Cc2ccccc2CN1C(=O)[C@@H](NC(=O)[C@H](C)NC)C(C)(C)C` [Example 29, (S)-2-((S)-3,3-Dimethyl-2-((S)-2-(methylamino)propanamido)butanoyl)-N-(4-(((3S,5S)-1-((S)-3,3-dimethyl-2-((S)-2-(methyl-amino)propanamido)butanoyl)-5-(((R)-1,2,3,4-tetra-hydronaphthalen-1-yl)carbamoyl)pyrrolidin-3-yl)carbamoyl)benzyl)-N-((R)-1-(2-ethoxyphenyl)ethyl)-1,2,3,4-tetrahydro-isoquinoline-3-carboxamide], the IC50 is 160 nM.
